Source: publication PMC9681820, “A PDE10A inhibitor CPL500036 is a novel agent modulating striatal function devoid of most neuroleptic side-effects” (Frontiers in Pharmacology, 2022)
Where two headings read alike, the source gives them in different places.

Legend:
[1] = tested on: Salmonella typhimurium TA98; assay: Ames test; conditions: CPL500036 5000µg/plate, n=3
[2] = tested on: Salmonella typhimurium TA100; conditions: CPL500036 5000µg/plate, n=3
[3] = tested on: Salmonella typhimurium TA1535; conditions: CPL500036 5000µg/plate, n=3
[4] = tested on: Salmonella typhimurium TA1537; assay: Ames test; conditions: CPL500036 5000µg/plate, n=3
[5] = tested on: Escherichia coli WP2 uvrA; assay: Ames test; conditions: CPL500036 5000µg/plate, n=3
[6] = tested on: cardiac 3D spheroids (cardiomyocytes and fibroblasts derived from human pluripotent cells); assay: Cardiotoxicity in spontaneously beating cardiac 3D spheroids; assay type: cell-based; conditions: 3D cardiac spheroids; for AC50: Homo sapiens
Method: The cardiotoxic effect of CPL500036 was evaluated in spontaneously beating cardiac 3D spheroids (comprising cardiomyocytes and fibroblasts derived from human pluripotent cells) by Cyprotex (Cheshire, United Kingdom). Experiments were carried out in accordance with the service-provider’s protocol. Specific parameters of cell health were assessed: number and size of spheroids, DNA structure, intracellular level of calcium ions, mitochondrial mass, membrane potential and cellular ATP. […] During the 14 days of the experiment, redosing occurred on three occasions. Spheroid hypertrophy was measured on days 3, 7, 10, and 14 using the “brightfield live cellular imaging” mode of a Cellomics ArrayScan® XTI system (Thermo Scientific, Waltham, MA, United States). On day-14, the spheroid model was analyzed using the confocal mode of Cellomics ArrayScan XTI following incorporation of appropriate fluorescent dyes. Subsequently, cellular ATP content was measured using CellTiterGlo® (Promega, Fitchburg, WI, United States). Mitomicyn C and dasatinib were used as positive controls (Supplementary Table S1).
concentration at which 50% maximum effect is observed for each cell health parameter; NR - No response observed.

Sprague–Dawley rats = assay: Hyperprolactinemia: plasma prolactin before and 2 h after administration; assay type: in vivo; conditions: 3 mg/kg, p.o., n = 4
Method: Four male Sprague–Dawley rats (∼10 weeks; Mossakowski Medical Research Institute, Polish Academy of Sciences, Warsaw, Poland), underwent gavage with CPL500036 (3 mg/kg), haloperidol (3 mg/kg; as a positive control) or vehicle. Rats were fasted for 16 h before administration. Blood samples from the tail vein were collected immediately before and 2 h after administration. Plasma was obtained by centrifugation (1,600 × g, 20 min, 4°C) of blood samples collected on K2EDTA, and was stored at −80°C until analyses. The prolactin concentration in plasma samples was determined using the Prolactin (rat) EIA kit (Bertin Rockville, MD, United States) according to the manufacturer’s protocol. The prolactin concentration difference was assessed as follows: %∆prolactin=cprolactin, 2h−cprolactin, 0h/[…] (1)

[7] = design: method as in ref Megens A. A. H. P. et al., 2014; Suzuki et al., 2015; Arakawa et al., 2016; conditions: compared with marketed antipsychotics; ref Megens A. A. H. P. et al., 2014; Suzuki et al., 2015; Arakawa et al., 2016; cited from earlier work
PDE10A = PDE10A (Homo sapiens, UniProt Q9Y233); design: method as in ref Schmidt et al., 2008; Grauer et al., 2009; Harada et al., 2015; conditions: ref Schmidt et al., 2008; Grauer et al., 2009; Harada et al., 2015; read-out: IC50 against PDE10A; cited from earlier work
[8] = With metabolic activation (+S9 mix), 2AA 2µg/plate
[9] = Without metabolic activation (-S9 mix), 9AA 50µg/plate
[10] = read-out: Mitochondrial mass AC50
[11] = read-out: Mitochondrial membrane potential AC50
[12] = Without metabolic activation (-S9 mix), NPD 4µg/plate
[13] = Without metabolic activation (-S9 mix), SAZ 2µg/plate

PDE10A, sequence (Q9Y233 whole entry, species assumed): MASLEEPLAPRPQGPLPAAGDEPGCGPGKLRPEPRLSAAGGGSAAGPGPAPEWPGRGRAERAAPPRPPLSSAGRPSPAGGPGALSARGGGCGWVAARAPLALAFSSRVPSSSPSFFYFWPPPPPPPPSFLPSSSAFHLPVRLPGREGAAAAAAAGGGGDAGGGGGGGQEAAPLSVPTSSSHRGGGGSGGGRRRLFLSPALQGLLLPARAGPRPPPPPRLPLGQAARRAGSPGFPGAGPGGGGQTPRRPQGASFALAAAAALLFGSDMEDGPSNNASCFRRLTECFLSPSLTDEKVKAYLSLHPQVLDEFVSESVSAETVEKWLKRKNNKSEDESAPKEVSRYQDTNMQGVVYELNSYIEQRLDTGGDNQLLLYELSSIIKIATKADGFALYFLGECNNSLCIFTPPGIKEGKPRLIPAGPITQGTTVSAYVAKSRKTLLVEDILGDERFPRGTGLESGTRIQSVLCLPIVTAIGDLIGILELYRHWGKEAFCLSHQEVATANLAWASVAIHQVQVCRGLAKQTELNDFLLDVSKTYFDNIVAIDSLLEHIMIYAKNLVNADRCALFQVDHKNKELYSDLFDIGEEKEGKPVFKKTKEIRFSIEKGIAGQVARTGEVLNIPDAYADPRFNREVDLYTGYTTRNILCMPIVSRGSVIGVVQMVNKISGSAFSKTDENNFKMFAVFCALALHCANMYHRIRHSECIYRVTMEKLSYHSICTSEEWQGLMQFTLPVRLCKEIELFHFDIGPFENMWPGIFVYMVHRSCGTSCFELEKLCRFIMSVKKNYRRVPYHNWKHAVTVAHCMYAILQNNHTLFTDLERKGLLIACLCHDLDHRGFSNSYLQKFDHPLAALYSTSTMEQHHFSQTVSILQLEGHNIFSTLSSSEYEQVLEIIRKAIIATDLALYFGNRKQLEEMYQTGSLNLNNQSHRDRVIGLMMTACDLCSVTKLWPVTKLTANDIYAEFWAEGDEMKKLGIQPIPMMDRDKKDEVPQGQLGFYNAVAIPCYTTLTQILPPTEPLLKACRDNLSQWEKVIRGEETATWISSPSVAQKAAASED

With `Nc1ccc2cc3ccccc3cc2c1` [2AA, 2-aminoanthracene, reference compound] the Mutation rate [1, 8] was 84.13, the “Revertants Mean±SD” value [1, 8] was 1682.7±156.02 and the Mutation rate [2, 8] was 19.26. The “Revertants Mean±SD” value [2, 8] was 1464.0±361.88, the Mutation rate [3, 8] was 11.38 and the “Revertants Mean±SD” value [3, 8] was 159.3±15.57. The Mutation rate [4, 8] was 9.0, the “Revertants Mean±SD” value [4, 8] was 78.0±7.94 and the Mutation rate [5, 8] was 8.49. The “Revertants Mean±SD” value [5, 8] was 203.7±3.79.
With `Nc1c2ccccc2nc2ccccc12` [9AA, 9-Aminoacridine, reference compound] the Mutation rate [4, 9] was 50.65 and the “Revertants Mean±SD” value [4, 9] was 287.0±65.60.
In the case of `Cc1nc(Nc2ncc(C(=O)Nc3c(C)cccc3Cl)s2)cc(N2CCN(CCO)CC2)n1` [Dasatinib], the “Calcium MEC” value [6] is reported as 43.0 µM, the “Cellular ATP MEC” value [6] is reported as 0.075 µM and the “DNA structure MEC” value [6] is reported as 2.92 µM. The “Mitochondrial mass MEC” value [6] was 2.43 µM, the “Mitochondrial membrane potential MEC” value [6] was 16.82 µM and the “Spheroid size MEC” value [6] was 0.469 µM. For the same compound, the AC50 ([6]; read-out: Calcium AC50) was > 50 µM, the AC50 ([6]; read-out: Cellular ATP AC50) was 0.374 µM and the AC50 ([6]; read-out: DNA structure AC50) was > 50 µM. For the same compound, the AC50 [6, 10] was > 5 µM, the AC50 [6, 11] was 26.4 µM and the AC50 ([6]; read-out: Spheroid count AC50) was > 50 µM. For the same compound, the AC50 ([6]; read-out: Spheroid size AC50) was 23.4 µM.
For `O=C(CCCN1CCC(O)(c2ccc(Cl)cc2)CC1)c1ccc(F)cc1` [Haloperidol], the “prolactin release (relative change in the prolactin level before and 2 h after administration)” value (Sprague–Dawley rats) was “induced significant prolactin release”.
In the case of `COCCc1ccc(-c2c(C)nc3c(N4CCOCC4)nccn23)cn1` [JNJ-42314,415], the cataleptic effect [7] is listed as “weaker than that for marketed antipsychotics and did not increase with increasing dose”.
Compound `COS(C)(=O)=O` [MMS, Methyl methanesulfonate, reference compound] has a Mutation rate ([5]; Without metabolic activation (-S9 mix), MMS 2µg/plate) of 33.85.
In the case of `CO[C@@]12[C@H](COC(N)=O)C3=C(C(=O)C(C)=C(N)C3=O)N1C[C@@H]1N[C@@H]12` [Mitomycin C], the “Calcium MEC” value [6] is reported as 79.1 µM, the “Cellular ATP MEC” value [6] is reported as 0.243 µM and the “DNA structure MEC” value [6] is reported as 0.704 µM. The “Mitochondrial mass MEC” value [6] was < 0.04 µM, the “Mitochondrial membrane potential MEC” value [6] was 1.89 µM and the “Spheroid count MEC” value [6] was 2 µM. The “Spheroid size MEC” value [6] was 2.97 µM, the AC50 ([6]; read-out: Calcium AC50) was > 100 µM and the AC50 ([6]; read-out: Cellular ATP AC50) was 0.766 µM. The AC50 ([6]; read-out: DNA structure AC50) was 4.41 µM, the AC50 [6, 10] was 0.731 µM and the AC50 [6, 11] was 3.88 µM. The AC50 ([6]; read-out: Spheroid size AC50) was > 100 µM.
In the case of `Nc1ccc([N+](=O)[O-])cc1N` [NPD, 4-Nitro-1,2-phenylenediamine, reference compound], the Mutation rate [1, 12] is reported as 18.6 and the “Revertants Mean±SD” value [1, 12] is reported as 335.0±57.51.
For `Cc1ncc(C)n2nc(/C=C/c3nc(N4CCCC4)cc(N4CCOCC4)n3)nc12` [PDM-042, (E )-4-(2-(2-(5,8-dimethyl-[1,2, 4]triazolo[1,5-a]pyrazin-2-yl)vinyl)-6-(pyrrolidin-1-yl)pyrimidin-4-yl)morpholine], the cataleptic effect [7] is listed as “weaker than that for marketed antipsychotics and did not increase with increasing dose”.
For `[N-]=[N+]=[N-].[Na+]` [SAZ, Sodium Azide, reference compound], the Mutation rate [2, 13] was 12.76, the “Revertants Mean±SD” value [2, 13] was 1093.0±64.66 and the Mutation rate [3, 13] was 74.21. For the same compound, the “Revertants Mean±SD” value [3, 13] was 940.0±91.95.
In the case of `COc1cn(-c2ccc(-n3cccn3)cc2F)nc(-c2ccnn2-c2ccccc2)c1=O` [TAK-063], the cataleptic effect [7] is given as “weaker than that for marketed antipsychotics and did not increase with increasing dose”.
For `FC(F)(F)Cn1cc(-c2ccncc2)c(-c2ccc(OCc3ccc4ccccc4n3)cc2)n1` [TP-10], the IC50 (PDE10A) is given as 0.0003 µM.
